Assay results: patent publication US20100099703A1, “PHENYLAMINO-SUBSTITUTED PIPERIDINE COMPOUNDS, THEIR PREPARATION AND USE AS MEDICAMENTS” (priority 2006, published 2010)

Target: T1, rat Y5 receptor (Rattus norvegicus, UniProt Q63634)
T1 construct: expressed in transfected cells; host or cells: C6 cells (membrane preparation)
T1 sequence (Q63634 1-445): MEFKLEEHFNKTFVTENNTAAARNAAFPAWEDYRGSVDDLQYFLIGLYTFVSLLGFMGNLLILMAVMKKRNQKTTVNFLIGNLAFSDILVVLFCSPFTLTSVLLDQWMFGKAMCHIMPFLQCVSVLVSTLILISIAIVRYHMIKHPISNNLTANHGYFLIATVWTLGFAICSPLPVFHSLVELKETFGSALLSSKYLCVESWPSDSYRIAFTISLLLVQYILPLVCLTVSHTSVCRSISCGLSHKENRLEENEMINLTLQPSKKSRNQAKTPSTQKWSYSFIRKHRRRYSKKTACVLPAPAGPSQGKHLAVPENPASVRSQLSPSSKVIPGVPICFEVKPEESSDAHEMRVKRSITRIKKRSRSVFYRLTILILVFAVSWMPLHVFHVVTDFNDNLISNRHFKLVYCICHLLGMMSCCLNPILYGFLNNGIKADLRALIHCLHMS
Test: Neuropeptide Y5 receptor binding ([125I]-PYY displacement, membranes of transfected C6 cells)
Settings: radioligand [125I]-PYY 100 pM, C6 cells transfected with rat Y5 receptor; for inhibition at 1 µM: compound at 10^−6 M
Method: Neuropeptide Y5 Receptor Binding Studies:
The methods used for membrane preparation and binding are similar to those described by Y. Hu, B. T. Bloomquist et al. in Y. Hu, B. T. Bloomquist et al., The Journal of Biological Chemistry, 1996, 271, 26315-26319 with modifications. Said literature description is herewith incorporated by reference and forms part of the disclosure. Cells C6 were transfected with the rat Y5 receptor. The cells were grown under standard culture conditions in 150 cm^2 dishes and they were harvested using a rubber scraper and 10 ml PBS. The cells from five dishes were collected and centrifuged 2.500 g for 5 min (4° C.). The pellet was washed by resuspending in 3 ml buffer (Tris-HCl 10 mM, pH 7.4), homogenized using a Potter S homogenizer, 10 strokes at 600 rpm and centrifuged 48.000 g for 20 min (4° C.). The pellet was resuspended in 8 ml membrane buffer (Tris-HCl 25 mM, NaCl 120 mM, KCl 5 mM, KH2PO4 1.2 mM, CaCl2 2.5 mM, MgSO4 1.2 mM, BSA 0.15 mg/ml, Bacitracine 0.5 mg/ml, pH 7.4) and rehomogenized using the Potter S, 10 strokes at 600 rpm. The protein concentration in the incubation was 40 μg/ml. The radioligand was [^125I]-PYY (100 pM) in a total incubation volume of 200 μl. Following incubation at 25° C. for 2 h, the reaction was stopped by addition of 5 ml ice-cold buffer (Tris-HCl 25 mM, NaCl 120 mM, KCl 5 mM, KH2PO4 1.2 mM, CaCl2 2.5 mM, MgSO4 1.2 mM, pH 7.4) and rapid filtration in a Harvester Brandell Cell using filters (Schleicher & Schuell GF 3362) pretreated for two hours with 0.5% polyethyleneimine. Filters were washed one time with 5 ml ice-cold buffer. The filters were placed into plastic scintilation vials and 5 ml scintilation cocktail Ecoscint H were added. The quantity of radioactivity present was determined in a Wallac Winspectral 1414 counter. Non specific binding was determined in the presence of 1 μM de pNPY. All binding assays were done in triplicate.

Row | Compound | inhibition at 1 µM | IC50
1 | O=C(CN1CCC(Nc2ccccc2O)CC1)Nc1cnc2ccccc2c1 [Example 1, 2-[4-(2-Hydroxy-phenylamino)-piperidin-1-yl]-N-quinolin-3-yl-acetamide] | 5.6% | 
2 | O=C(CN1CCC(Nc2ccccc2O)CC1)Nc1ccc(C(=O)c2ccccc2)cc1 [Example 2, N-(4-Benzoyl-phenyl)-2-[4-(2-hydroxy-phenylamino)-piperidin-1-yl]-acetamide] | 62.5% | 
3 | CCn1c2ccccc2c2cc(NC(=O)CN3CCC(Nc4ccccc4O)CC3)ccc21 [Example 3, N-(9-Ethyl-9H-carbazol-3-yl)-2-[4-(2-hydroxy-phenylamino)-piperidin-1-yl]-acetamide] | 97.8% | 66.1 nM
4 | O=C(CN1CCC(Nc2ccccc2O)CC1)Nc1ccc(C2CCCCC2)cc1 [Example 4, N-(4-Cyclohexyl-phenyl)-2-[4-(2-hydroxy-phenylamino)-piperidin-1-yl]-acetamide] | 35.3% | 
5 | O=C(CN1CCC(Nc2ccccc2O)CC1)Nc1ccc2ncccc2c1 [Example 5, 2-[4-(2-Hydroxy-phenylamino)-piperidin-1-yl]-N-quinolin-6-yl-acetamide] | 22.7% | 
6 | O=C(CN1CCC(Nc2ccccc2O)CC1)Nc1ccc2c(c1)-c1ccccc1C2=O [Example 6, 2-[4-(2-Hydroxy-phenylamino)-piperidin-1-yl]-N-(9-oxo-9H-fluoren-3-yl)-acetamide] | 95% | 57.5 nM
7 | CC(=O)c1ccc(NC(=O)CN2CCC(Nc3ccccc3O)CC2)cc1 [Example 7, N-(4-Acetyl-phenyl)-2-[4-(2-hydroxy-phenylamino)-piperidin-1-yl]-acetamide] | 14% | 
8 | O=C(CN1CCC(Nc2ccccc2O)CC1)Nc1ccc2c(c1)CCCC2=O [Example 9, 2-[4-(2-Hydroxy-phenylamino)-piperidin-1-yl]-N-(5-oxo-5,6,7,8-tetrahydro-naphthalen-2-yl)-acetamide] | 44.7% | 
9 | CCn1c2ccccc2c2cc(NC(=O)CN3CCC(Nc4cccc(O)c4)CC3)ccc21 [Example 10, N-(9-Ethyl-9H-carbazol-3-yl)-2-[4-(3-hydroxy-phenylamino)-piperidin-1-yl]-acetamide] | 105% | 34.6 nM
10 | O=C(CN1CCC(Nc2cccc(O)c2)CC1)Nc1ccc2c(c1)-c1ccccc1C2=O [Example 11, 2-[4-(3-Hydroxy-phenylamino)-piperidin-1-yl]-N-(9-oxo-9H-fluoren-3-yl)-acetamide] | 76.9% | 35.6 nM
11 | CCN(CCO)c1ccc(NC(=O)CN2CCC(Nc3cccc(O)c3)CC2)cc1 [Example 12, N-{4-[Ethyl-(2-hydroxy-ethyl)-amino]-phenyl}-2-[4-(3-hydroxy-phenylamino)-piperidin-1-yl]-acetamide] | 51.2% | 
12 | O=C(CN1CCC(Nc2cccc(O)c2)CC1)Nc1ccc2ncccc2c1 [Example 13, 2-[4-(3-Hydroxy-phenylamino)-piperidin-1-yl]-N-quinolin-6-yl-acetamide] | 27.8% | 
13 | CCn1c2ccccc2c2cc(NC(=O)CN3CCC(Nc4ccc(O)cc4)CC3)ccc21 [Example 15, N-(9-Ethyl-9H-carbazol-3-yl)-2-[4-(4-hydroxy-phenylamino)-piperidin-1-yl]-acetamide] | 74.6% | 
14 | O=C(CN1CCC(Nc2ccc(O)cc2)CC1)Nc1ccc2c(c1)-c1ccccc1C2=O [Example 16, 2-[4-(4-Hydroxy-phenylamino)-piperidin-1-yl]-N-(9-oxo-9H-fluoren-3-yl)-acetamide] | 101% | 
15 | CCn1c2ccccc2c2cc(NC(=O)CN3CCC(Nc4ccccc4OC)CC3)ccc21 [Example 17, N-(9-Ethyl-9H-carbazol-3-yl)-2-[4-(2-methoxy-phenylamino)-piperidin-1-yl]-acetamide] | 101% | 46.9 nM
16 | COc1ccccc1NC1CCN(CC(=O)Nc2ccc3c(c2)-c2ccccc2C3=O)CC1 [Example 18, 2-[4-(2-Methoxy-phenylamino)-piperidin-1-yl]-N-(9-oxo-9H-fluoren-3-yl)-acetamide] | 96.1% | 
17 | COc1ccccc1NC1CCN(CC(=O)Nc2cnc3ccccc3c2)CC1 [Example 21, 2-[4-(2-Methoxy-phenylamino)-piperidin-1-yl]-N-quinolin-3-yl-acetamide] | 19.6% | 
18 | COc1ccccc1NC1CCN(CC(=O)Nc2ccc(C(=O)c3ccccc3)cc2)CC1 [Example 22, N-(4-Benzoyl-phenyl)-2-[4-(2-methoxy-phenylamino)-piperidin-1-yl]-acetamide] | 55.7% | 
19 | CCn1c2ccccc2c2cc(NC(=O)CN3CCC(Nc4cccc(OC)c4)CC3)ccc21 [Example 23, N-(9-Ethyl-9H-carbazol-3-yl)-2-[4-(3-methoxy-phenylamino)-piperidin-1-yl]-acetamide] | 96.9% | 
20 | COc1cccc(NC2CCN(CC(=O)Nc3ccc4c(c3)-c3ccccc3C4=O)CC2)c1 [Example 24, 2-[4-(3-Methoxy-phenylamino)-piperidin-1-yl]-N-(9-oxo-9H-fluoren-3-yl)-acetamide] | 97.5% | 
21 | CCN(CCO)c1ccc(NC(=O)CN2CCC(Nc3cccc(OC)c3)CC2)cc1 [Example 25, N-{4-[Ethyl-(2-hydroxy-ethyl)-amino]-phenyl}-2-[4-(3-methoxy-phenylamino)-piperidin-1-yl]-acetamide] | 51.6% | 
22 | COc1cccc(NC2CCN(CC(=O)Nc3ccc(C(=O)c4ccccc4)cc3)CC2)c1 [Example 26, N-(4-Benzoyl-phenyl)-2-[4-(3-methoxy-phenylamino)-piperidin-1-yl]-acetamide] | 37% | 
23 | CCn1c2ccccc2c2cc(NC(=O)CN3CCC(Nc4ccc(OC)cc4)CC3)ccc21 [Example 27, N-(9-Ethyl-9H-carbazol-3-yl)-2-[4-(4-methoxy-phenylamino)-piperidin-1-yl]-acetamide] | 91.1% | 
24 | COc1ccc(NC2CCN(CC(=O)Nc3ccc4c(c3)-c3ccccc3C4=O)CC2)cc1 [Example 28, 2-[4-(4-Methoxy-phenylamino)-piperidin-1-yl]-N-(9-oxo-9H-fluoren-3-yl)-acetamide] | 97.3% | 
25 | CCN(CCO)c1ccc(NC(=O)CN2CCC(Nc3ccc(OC)cc3)CC2)cc1 [Example 29, N-{4-[Ethyl-(2-hydroxy-ethyl)-amino]-phenyl}-2-[4-(4-methoxy-phenylamino)-piperidin-1-yl]-acetamide] | 69% | 
26 | CCn1c2ccccc2c2cc(NC(=O)CN3CCC(Nc4ccccc4)CC3)ccc21 [Example 32, N-(9-Ethyl-9H-carbazol-3-yl)-2-(4-phenylamino-piperidin-1-yl)-acetamide] | 80.7% | 23.7 nM
27 | O=C(CN1CCC(Nc2ccccc2)CC1)Nc1ccc2c(c1)-c1ccccc1C2=O [Example 33, N-(9-Oxo-9H-fluoren-3-yl)-2-(4-phenylamino-piperidin-1-yl)-acetamide] | 108% | 102 nM
28 | CCN(CCO)c1ccc(NC(=O)CN2CCC(Nc3ccccc3)CC2)cc1 [Example 34, N-{4-[Ethyl-(2-hydroxy-ethyl)-amino]-phenyl}-2-(4-phenylamino-piperidin-1-yl)-acetamide] | 72.6% | 
29 | O=C(CN1CCC(Nc2ccccc2)CC1)Nc1ccc2c(c1)CCCC2=O [Example 35, N-(5-Oxo-5,6,7,8-tetrahydro-naphthalen-2-yl)-2-(4-phenylamino-piperidin-1-yl)-acetamide] | 67.1% | 
30 | O=C(CN1CCC(N(CC(=O)Nc2ccc3c(c2)-c2ccccc2C3=O)c2ccc(O)cc2)CC1)Nc1ccc2c(c1)-c1ccccc1C2=O [Example 38, 2-(4-{(4-Hydroxy-phenyl)-[(9-oxo-9H-fluoren-3-ylcarbamoyl)-methyl]-amino}-piperidin-1-yl)-N-(9-oxo-9H-fluoren-3-yl)-acetamide] | 45.1% | 
